In patent US10272095B2 (GlaxoSmithKline Intellectual Property Development Limited, priority 2015, dated 2019):
Where a name gives a salt, the structure may show the parent alone. Read-outs that look alike come from different tables or passages of the source.

System: NQO1 specific enzyme activity in BEAS-2B cells
Experiment: BEAS-2B NQO1 MTT assay
Format: cell-based
Conditions: NQO1 specific enzyme activity induction in BEAS-2B cells, 48 hours, read-out: EC50
From the text: NAD(P)H:quinone oxidoreductase 1 (NQO1), also called DT diaphorase, is a homodimeric FAD-containing enzyme that catalyzes obligatory NAD(P)H-dependent two-electron reductions of quinones and protects cells against the toxic and neoplastic effects of free radicals and reactive oxygen species arising from one-electron reductions. The transcription of NQO1 is finely regulated by NRF2, and thus NQO1 activity is a good marker for NRF2 activation. On day one, frozen BEAS-2B cells (ATCC) are thawed in a water bath, counted, and re-suspended at a concentration of 250,000 cells/mL. Fifty microliters of cells are plated in 384 well black clear-bottomed plates. Plates are incubated at 37° C., 5% CO2 overnight. On day two, plates are centrifuged and 50 nL of compound or controls are added to the cells. Plates are then incubated at 37° C., 5% CO2 for 48 hours. On day four, medium is aspirated from the plate and crude cell lysates are made by adding 13 uL of 1× Cell Signaling Technologies lysis buffer with 1 Complete, Mini, EDTA-free Protease Inhibitor Tablet (Roche) for each 10 mL of lysis buffer. After lysis plates are incubated for 20 minutes at room temperature. Two microliters of lysate are removed for use in Cell Titer Glo assay (Promega) and MTT cocktail is prepared (Prochaska et. al. 1998) for measurement of NQO1 activity. Fifty microliters of MTT cocktail is added to each well, plate is centrifuged, and analyzed on an Envision plate reader (Perkin Elmer) using Absorbance 570 nm label for 30 minutes. Product formation is measured kinetically and the pEC50 of NQO1 specific activity induction is calculated by plotting the change in absorbance (Delta OD/min) versus the log of compound concentration followed by 3-parameter fitting.
EC50s<1 nM (+++++), EC50s 10 nM-1 nM (++++), EC50s 10-100 nM (+++), EC50s 100 nM-1 uM (++), EC50s 1 uM-10 uM (+), EC50s>10 uM (−), or were not determined (ND).

Structure (SMILES)	EC50 (Homo sapiens, BEAS-2B, 48 h) [µM]	EC50 [µM]
CCn1cc(CCC(CC(=O)O)c2ccc3c(c2)[C@@H]2[C@@H](CC(=O)N2CC2CCCCC2)C3)nn1 (stereo partly drawn) [Example 3, 3-[(3aR,8bS)-1-(cyclohexylmethyl)-2-oxo-1H,2H,3H,3aH,4H,8bH-indeno[1,2-b]pyrrol-7-yl]-5-(1-ethyl-1H-1,2,3-triazol-4-yl)pentanoic Acid]	1 to 10	–
Cc1c(C(CC(=O)O)c2ccc3c(c2)C2C(CC(=O)N2CC2CCC4CCCCC4C2)C3)ccc2c1nnn2C (stereo not drawn) [Example 4, 3-[1-(Decahydronaphthalen-2-ylmethyl)-2-oxo-1H,2H,3H,3aH,4H,8bH-indeno[1,2-b]pyrrol-7-yl]-3-(1,4-dimethyl-1H-1,2,3-benzotriazol-5-yl)propanoic Acid]	0.01 to 0.1	–
CCCC1CCC(CN2C(=O)CC3Cc4ccc(C(CC(=O)O)c5ccc6c(nnn6C)c5C)cc4C32)CC1 (stereo not drawn) [Example 5, 3-(1,4-Dimethyl-1H-1,2,3-benzotriazol-5-yl)-3-{2-oxo-1-[(4-propylcyclohexyl)methyl]-1H,2H,3H,3aH,4H,8bH-indeno[1,2-b]pyrrol-7-yl}propanoic Acid]	0.001 to 0.01	–
Cc1c(C(CC(=O)O)c2ccc3c(c2)C2C(CCN2C(=O)OC(C)(C)C)C3)ccc2c1nnn2C (stereo not drawn) [Example 6, 3-{1-[(tert-Butoxy)carbonyl]-1H,2H,3H,3aH,4H,8bH-indeno[1,2-b]pyrrol-7-yl}-3-(1,4-dimethyl-1H-1,2,3-benzotriazol-5-yl)propanoic Acid]	0.1 to 1	–
Cc1c(C(CC(=O)O)c2ccc3c(c2)C2C(CCN2C(=O)CC2CCCCC2)C3)ccc2c1nnn2C (stereo not drawn) [Example 7, 3-[1-(2-Cyclohexylacetyl)-1H,2H,3H,3aH,4H,8bH-indeno[1,2-b]pyrrol-7-yl]-3-(1,4-dimethyl-1H-1,2,3-benzotriazol-5-yl)propanoic Acid]	1 to 10	–
Cc1c(C(CC(=O)O)c2ccc3c(c2)C2C(CCN2C(=O)C(C)c2ccccc2)C3)ccc2c1nnn2C (stereo not drawn) [Example 8, 3-(1,4-Dimethyl-1H-1,2,3-benzotriazol-5-yl)-3-[1-(2-phenylpropanoyl)-1H,2H,3H,3aH,4H,8bH-indeno[1,2-b]pyrrol-7-yl]propanoic Acid]	–	1 to 10
Cc1c(C(CC(=O)O)c2ccc3c(c2)C2C(CCN2C(=O)C(C)c2ccccc2)C3)ccc2c1nnn2C (stereo not drawn) [Example 9, 3-(1,4-Dimethyl-1H-1,2,3-benzotriazol-5-yl)-3-[1-(2-phenylpropanoyl)-1H,2H,3H,3aH,4H,8bH-indeno[1,2-b]pyrrol-7-yl]propanoic Acid]	1 to 10	–
CCCC(C)C(=O)N1CCC2Cc3ccc(C(CC(=O)O)c4ccc5c(nnn5C)c4C)cc3C21 (stereo not drawn) [Example 10, 3-(1,4-Dimethyl-1H-1,2,3-benzotriazol-5-yl)-3-[1-(2-methylpentanoyl)-1H,2H,3H,3aH,4H,8bH-indeno[1,2-b]pyrrol-7-yl]propanoic Acid]	1 to 10	–
Cc1c(C(CC(=O)O)c2ccc3c(c2)C2C(CCN2C(=O)Cc2ccccc2Cl)C3)ccc2c1nnn2C (stereo not drawn) [Example 11, 3-{1-[2-(2-Chlorophenyl)acetyl]-1H,2H,3H,3aH,4H,8bH-indeno[1,2-b]pyrrol-7-yl}-3-(1,4-dimethyl-1H-1,2,3-benzotriazol-5-yl)propanoic Acid]	1 to 10	–
Cc1c(C(CC(=O)O)c2ccc3c(c2)C2C(CCN2C(=O)Cc2ccccc2C#N)C3)ccc2c1nnn2C (stereo not drawn) [Example 12, 3-{1-[2-(2-Cyanophenyl)acetyl]-1H,2H,3H,3aH,4H,8bH-indeno[1,2-b]pyrrol-7-yl}-3-(1,4-dimethyl-1H-1,2,3-benzotriazol-5-yl)propanoic Acid]	1 to 10	–
Cc1c(C(CC(=O)O)c2ccc3c(c2)C2C(CCN2C(=O)CC(C)(C)C)C3)ccc2c1nnn2C (stereo not drawn) [Example 13, 3-(1,4-Dimethyl-1H-1,2,3-benzotriazol-5-yl)-3-[1-(3,3-dimethylbutanoyl)-1H,2H,3H,3aH,4H,8bH-indeno[1,2-b]pyrrol-7-yl]propanoic Acid]	1 to 10	–
CCCCN(C)C(=O)N1CCC2Cc3ccc(C(CC(=O)O)c4ccc5c(nnn5C)c4C)cc3C21 (stereo not drawn) [Example 14, 3-{1-[Butyl(methyl)carbamoyl]-1H,2H,3H,3aH,4H,8bH-indeno[1,2-b]pyrrol-7-yl}-3-(1,4-dimethyl-1H-1,2,3-benzotriazol-5-yl)propanoic Acid]	1 to 10	–
COc1cc(C(CC(=O)O)c2ccc3c(c2)C2C(CCN2C(=O)OC(C)(C)C)C3)cc2nnn(C)c12 (stereo not drawn) [Example 15, 3-{1-[(tert-Butoxy)carbonyl]-1H,2H,3H,3aH,4H,8bH-indeno[1,2-b]pyrrol-7-yl}-3-(7-methoxy-1-methyl-1H-1,2,3-benzotriazol-5-yl)propanoic Acid]	0.1 to 1	–
CCn1nnc2c(C)c(C(CC(=O)O)c3ccc4c(c3)C3C(CCN3C(=O)OC(C)(C)C)C4)ccc21 (stereo not drawn) [Example 16, 3-(1-(tert-Butoxycarbonyl)-1,2,3,3a,4,8b-hexahydroindeno[1,2-b]pyrrol-7-yl)-3-(1-ethyl-4-methyl-1H-benzo[d][1,2,3]triazol-5-yl)propanoic Acid]	0.1 to 1	–
CCn1cc(CCC(CC(=O)O)c2ccc3c(c2)C2C(CCN2C(=O)OC(C)(C)C)C3)nn1 (stereo not drawn) [Example 17, 3-(1-(tert-Butoxycarbonyl)-1,2,3,3a,4,8b-hexahydroindeno[1,2-b]pyrrol-7-yl)-5-(1-ethyl-1H-1,2,3-triazol-4-yl)pentanoic Acid]	1 to 10	–
COc1cc(C(CC(=O)O)c2ccc3c(c2)C2C(CCN2C(=O)OC(C)(C)C)C3)c(C)c2nnn(C)c12 (stereo not drawn) [Example 18, 3-(1-(tert-Butoxycarbonyl)-1,2,3,3a,4,8b-hexahydroindeno[1,2-b]pyrrol-7-yl)-3-(7-methoxy-1,4-dimethyl-1H-benzo[d][1,2,3]triazol-5-yl)propanoic Acid]	0.01 to 0.1	–
Cc1c(C(CC(=O)O)c2ccc3c(c2)C2C(CC3)CC(=O)N2CC2CCCCC2)ccc2c1nnn2C (stereo not drawn) [Example 19, 3-(1-(Cyclohexylmethyl)-2-oxo-2,3,3a,4,5,9b-hexahydro-1H-benzo[g]indol-8-yl)-3-(1,4-dimethyl-1H-benzo[d][1,2,3]triazol-5-yl)propanoic Acid]	0.1 to 1	–
Cc1c(C(CC(=O)O)c2ccc3c(c2)C2C(C3)OC(=O)N2CC2CCCCC2)ccc2c1nnn2C (stereo not drawn) [Example 20, 3-(3-(Cyclohexylmethyl)-2-oxo-3,3a,8,8a-tetrahydro-2H-indeno[1,2-d]oxazol-5-yl)-3-(1,4-dimethyl-1H-benzo[d][1,2,3]triazol-5-yl)propanoic Acid]	0.1 to 1	–
Cc1c(C(CC(=O)O)c2ccc3c(c2)C(N2Cc4cc(Cl)ccc4OC(C)(C)C2)CC3)ccc2c1nnn2C (stereo not drawn) [Example 21, 3-(3-(7-Chloro-2,2-dimethyl-2,3-dihydrobenzo[f][1,4]oxazepin-4(5H)-yl)-2,3-dihydro-1H-inden-5-yl)-3-(1,4-dimethyl-1H-benzo[d][1,2,3]triazol-5-yl)propanoic Acid, Formic Acid Salt]	0.001 to 0.01	–
Cc1ccc2c(c1)CN(C1CCc3ccc(C(CC(=O)O)c4ccc5c(nnn5C)c4C)cc31)CC(C)(C)O2 (stereo not drawn) [Example 22, 3-(1,4-Dimethyl-1H-benzo[d][1,2,3]triazol-5-yl)-3-(3-(2,2,7-trimethyl-2,3-dihydrobenzo[f][1,4]oxazepin-4(5H)-yl)-2,3-dihydro-1H-inden-5-yl)propanoic Acid]	0.001 to 0.01	–
COc1ccc2c(c1)CN(C1CCc3ccc(C(CC(=O)O)c4ccc5c(nnn5C)c4C)cc31)CC(C)(C)O2 (stereo not drawn) [Example 23, 3-(1,4-Dimethyl-1H-benzo[d][1,2,3]triazol-5-yl)-3-(3-(7-methoxy-2,2-dimethyl-2,3-dihydrobenzo[f][1,4]oxazepin-4(5H)-yl)-2,3-dihydro-1H-inden-5-yl)propanoic Acid]	0.001 to 0.01	–
Cc1ccc2c(c1)OC(C)(C)CN(C1CCc3ccc(C(CC(=O)O)c4ccc5c(nnn5C)c4C)cc31)C2 (stereo not drawn) [Example 24, 3-(1,4-Dimethyl-1H-benzo[d][1,2,3]triazol-5-yl)-3-(3-(2,2,8-trimethyl-2,3-dihydrobenzo[f][1,4]oxazepin-4(5H)-yl)-2,3-dihydro-1H-inden-5-yl)propanoic Acid, Formic Acid Salt]	0.001 to 0.01	–
Cc1c(C(CC(=O)O)c2ccc3c(c2)C(N2Cc4ccc(F)cc4OC(C)(C)C2)CC3)ccc2c1nnn2C (stereo not drawn) [Example 25, 3-(1,4-Dimethyl-1H-benzo[d][1,2,3]triazol-5-yl)-3-(3-(8-fluoro-2,2-dimethyl-2,3-dihydrobenzo[f][1,4]oxazepin-4(5H)-yl)-2,3-dihydro-1H-inden-5-yl)propanoic Acid]	0.001 to 0.01	–
Cc1cc(F)ccc1C(c1ccc2c(c1)C(N1Cc3ccccc3OC(C)(C)C1)CC2)C(C)(C)C(=O)O (stereo not drawn) [Example 26, 3-(3-(2,2-Dimethyl-2,3-dihydrobenzo[f][1,4]oxazepin-4(5H)-yl)-2,3-dihydro-1H-inden-5-yl)-3-(4-fluoro-2-methylphenyl)-2,2-dimethylpropanoic Acid]	0.01 to 0.1	–
